How the values were obtained:
5αR = conditions: cited from earlier work
castrated BPH model mice = experiment: Castrated benign prostatic hyperplasia (BPH) mouse model; type: in vivo; conditions: for testosterone-induced increase in seminal gland weight / testosterone-induced increase in ventral prostate size, length and width: 0.08% Fin, 1% TBE or 2% EA in drinking water, testosterone i.p. daily
5α-reductase (5αR) = target: T1, 5α-reductase (5αR) (Rattus norvegicus, UniProt P24008); experiment: 5αR activity assay (S9 rat liver homogenate, residual testosterone by HPLC); type: biochemical; conditions: cell-free system
T1 sequence (P24008 1-259): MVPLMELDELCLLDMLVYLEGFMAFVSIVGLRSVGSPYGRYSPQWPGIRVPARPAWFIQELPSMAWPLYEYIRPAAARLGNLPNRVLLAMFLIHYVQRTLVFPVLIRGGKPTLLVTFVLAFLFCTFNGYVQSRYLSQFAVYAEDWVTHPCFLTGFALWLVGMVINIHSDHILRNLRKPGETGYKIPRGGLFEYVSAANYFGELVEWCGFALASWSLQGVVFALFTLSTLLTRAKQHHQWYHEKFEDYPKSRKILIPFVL

[1] = qPCR, prostate and seminal glands

| Compound | inhibition of 5αR (5αR) | testosterone-induced increase in seminal gland weight (castrated BPH model mice) | testosterone-induced increase in ventral prostate size, length and width (castrated BPH model mice) | further results |
| --- | --- | --- | --- | --- |
| 1,2,3,6- or 1,2,4,6-tetra-O-galloyl-D-glucose [TGG] | inhibit 5αR |  |  |  |
| O=C(O)c1cc(O)c(O)c(O)c1 [GA, gallic acid] |  |  |  | 5αR inhibitory effects (5αR): does not exert 5αR inhibitory effects |
| CC(C)(C)NC(=O)[C@H]1CC[C@H]2[C@@H]3CC[C@H]4NC(=O)C=C[C@]4(C)[C@H]3CC[C@]12C [Fin, finasteride] |  | tended to inhibit | tended to inhibit | canalization and lumen formation in prostate gland (castrated BPH model mice; Masson's trichrome histology, 0.08% Fin or 1% TBE): suppressed; prostate basal cell proliferation, BrdU+ cells (castrated BPH model mice; immunohistochemistry, 0.08% Fin or 1% TBE): inhibited cell proliferation; PSA (Klkb1) expression (castrated BPH model mice; [1]): suppressed; TMPRSS2 expression (castrated BPH model mice; [1]): suppressed |
| O=C(O[C@@H]1O[C@@H]2COC(=O)c3cc(O)c(O)c(O)c3-c3c(cc(O)c(O)c3O)C(=O)O[C@H]2[C@H](OC(=O)c2cc(O)c(O)c(O)c2)[C@H]1OC(=O)c1cc(O)c(O)c(O)c1)c1cc(O)c(O)c(O)c1 [eugeniin] | inhibit 5αR |  |  |  |
| O=c1oc2c(O)c(O)cc3c(=O)oc4c(O)c(O)cc1c4c23 [EA, ellagic acid] |  | negligible effects | negligible effects | inhibition of 5αR activity (5α-reductase (5αR)): weakly inhibited |

— article PMC10380868, “Trapa bispinosa Roxb. Pericarp Extract Exerts 5α-Reductase Inhibitory Activity in Castrated Benign Prostatic Hyperplasia Model Mice” (International Journal of Molecular Sciences, 2023)
